Among the data in patent publication EP1832586A1, “Thiazole-piperidine derivatives in treatment of diseases of liver and the pancreas” (Oridis Biomed Forschungs- und Entwicklungs GmbH, priority 2006, dated 2007) are EC50 values, retold here.

SMILES strings stand for the structures.

Format in all cases: cell-based
The test system of one test is DAN-G. Nature of the test: CellTiter-Glo luminescent cell viability (proliferation) assay, DAN-G. Conditions: DAN-G (human pancreatic carcinoma) proliferation, 48 hours incubation, 10% FCS. The procedure: (§1) To practically assess the impact of the thiazole-piperidine derivatives, e.g. derivatives of piperidinyl-thiazole carboxylic acid and/or piperidinyl thiazole carboxamide, in the treatment and/or prevention of diseases according to the invention, the inhibition of cell proliferation is determined by using a luminescent cell viability assay (CellTiter-Glo®; Promega, Madison, USA). The assay is based on the relation that the ATP content is directly proportional to the number of cells present in the culture. The CellTiter-Glo® assay is performed to measure the proliferation rate of human hepatoma (HuH7, PLC/PRF/5, Hep3B, SK-Hep1), human hepatoblastoma (HepG2), human colon carcinoma (CX-2), human breast cancer (SK-Br-3), human ovarian carcinoma (HeLa) and human pancreatic carcinoma (DAN-G) cell lines. […] In particular, the compound according to formula (1) wherein R^1 is 4-isopropoxycarbonylphenyl, R^2 is 3-indolylmethyl, R^3 is hydrogen, R^4 is hydrogen, n is zero, A is a single bond, B is carbonyl, and wherein the residue R^1NR^3CO is connected to the carbon atom bound to nitrogen of the thiazole ring (compound no. XI in Table 1) inhibits proliferation of the human cell lines HepG2 and Hep3B with 10.8 and 3.5 µM, respectively.
(§2) To determine the inhibition of cell proliferation a luminescent cell viability assay (CellTiter-Glo®; Promega, Madison, USA) is implemented. The assay is based on the relation that the ATP content is directly proportional to the number of cells present in the culture (Technical Bulletin No. 228 "CellTiter-Glo® Luminescent Cell viability Assay", Revised 2/04. Promeg, Madison, USA). The CellTiter-Glo® assay is performed to measure the proliferation rate of human hepatoma (HuH7, PLC/PRF/5, Hep3B, SK-Hep1), human hepatoblastoma (HepG2), human colon carcinoma (CX-2), human breast cancer (SK-Br-3), human ovarian carcinoma (HeLa) and human pancreatic carcinoma (DAN-G) cell lines. 3000 viable cells (viability ≥ 90%) are seeded in opaque-walled 96-well plates and incubated for 24 hours in DMEM, supplemented with 2 mM glutamin. Cell proliferation is stimulated by addition of FCS to a final concentration of 10% (v/v). Simultaneously the compounds (see Table 1 and 2) are added in a concentration range of 0 to 20 µM. Triplicates are measured for each concentration. Cells and compounds (see Table 1 and 2) are incubated for a period of 48 hours in a volume of 140 µl cell culture medium (10% (v/v) FCS, 2 mM Glutamin, DMEM). The compounds according to the invention are dissolved in 60% to 100% (v/v) DMSO at a concentration of 2 mM. The final DMSO concentration under assay conditions never exceeds 1% (v/v). Throughout the assay cells are kept in a humidified incubator (95% rH) at 37°C and 5% CO2.
(§3) The final cell number is determined after 48 hour of incubation. Therefore 140 µl CellTiter-Glo®Reagent is added in each well. The contents are mixed on an orbital shaker for 2 minutes at room temperature. After subsequent incubation for additional 10 minutes at room temperature the luminescence signal is recorded within 30 min. EC50 values are calculated using the four-parametric Hill equation (Sigma Plot). Control values are: • 1) 10% (v/v) FCS, 2 mM glutamin, DMEM -> maximum cell number • 2) 2 mM glutamin, DMEM -> initial cell number

A further test relates to CX-2. In words: CellTiter-Glo luminescent cell viability (proliferation) assay, CX-2. The settings on record: CX-2 (human colon carcinoma) proliferation, 48 hours incubation, 10% FCS. The procedure: as §1, §2, §3
In a further test the test system is SK-Br-3. Nature of the test: CellTiter-Glo luminescent cell viability (proliferation) assay, SK-Br-3. The settings on record: Sk-Br-3 (human breast cancer) proliferation, 48 hours incubation, 10% FCS. The procedure:
as §1, §2, §3
For orientation: In ATP-based viability assays light output follows the ATP content of the culture.

The subject of a further test is HuH7. Nature of the test: CellTiter-Glo luminescent cell viability (proliferation) assay, HuH7. The settings on record: inhibition of HuH7 (human hepatoma) proliferation, 48 hours incubation, 10% FCS. The procedure:
as §1, §2, §3

For a further test, the system named is HeLa. Nature of the test: CellTiter-Glo luminescent cell viability (proliferation) assay, HeLa. The settings on record: Hela (human ovarian carcinoma [sic]) proliferation, 48 hours incubation, 10% FCS. The procedure:
as §1, §2, §3

Another test concerns Hep3B. Nature of the test: CellTiter-Glo luminescent cell viability (proliferation) assay, Hep3B. Conditions: Hep3B (human hepatoma), 48 hours incubation, 10% FCS; read-out: inhibits proliferation. The procedure:
(§4) To practically assess the impact of the thiazole-piperidine derivatives, e.g. derivatives of piperidinyl-thiazole carboxylic acid and/or piperidinyl thiazole carboxamide, in the treatment and/or prevention of diseases according to the invention, the inhibition of cell proliferation is determined by using a luminescent cell viability assay (CellTiter-Glo®; Promega, Madison, USA). The assay is based on the relation that the ATP content is directly proportional to the number of cells present in the culture. The CellTiter-Glo® assay is performed to measure the proliferation rate of human hepatoma (HuH7, PLC/PRF/5, Hep3B, SK-Hep1), human hepatoblastoma (HepG2), human colon carcinoma (CX-2), human breast cancer (SK-Br-3), human ovarian carcinoma (HeLa) and human pancreatic carcinoma (DAN-G) cell lines. […]
(§5) To determine the inhibition of cell proliferation a luminescent cell viability assay (CellTiter-Glo®; Promega, Madison, USA) is implemented. […] Triplicates are measured for each concentration. […]
(§6) The final cell number is determined after 48 hour of incubation. […] After subsequent incubation for additional 10 minutes at room temperature the luminescence signal is recorded within 30 min. EC50 values are calculated using the four-parametric Hill equation (Sigma Plot). […]

In a further test the test system is HepG2. Nature of the test: CellTiter-Glo luminescent cell viability (proliferation) assay, HepG2. Conditions: HepG2 (human hepatoblastoma), 48 hours incubation, 10% FCS; read-out: inhibits proliferation. The procedure: as §4, §5, §6

For the molecule `CC(C)(Cc1ccc(F)cc1)NC(=O)c1csc(C2CCN(C(=O)CC3C=Nc4ccccc43)CC2)n1` (stereo not shown) [VI], the EC50 in the test with DAN-G amounted to 11.2 µM; in the test on CX-2, 19.2 µM; with SK-Br-3, 10.4 µM; in the test with HuH7 (Homo sapiens, Huh-7, 48 h) it was 4.81 µM; in the test with HeLa, 13.5 µM.
In the case of `Cc1ccc2cc(NC(=O)c3csc(C4CCN(C(=O)CC5C=Nc6ccccc65)CC4)n3)ccc2n1` (stereo not shown) [V], the EC50 was 6.9 µM in the test with DAN-G; more than 20 µM in the test with CX-2; 10.8 µM in the test on SK-Br-3; 4.68 µM in the test on HuH7 (Homo sapiens, Huh-7, 48 h); 8.79 µM with HeLa.
As to `CC(C)OC(=O)c1ccc(NC(=O)c2csc(C3CCN(C(=O)CC4C=Nc5ccccc54)CC3)n2)cc1` (stereo not shown) [XI, 2-[1-{indol-3-yl-methylcarboxyl}piperidine-4-yl]-thiazole-4-yl-caboxylic acid (4-isoproxycarboxy-phenyl) amide], the EC50 is 7.63 µM with DAN-G; 22.3 µM in the test on CX-2; 10.2 µM in the test on SK-Br-3; 3.5 µM in the test on Hep3B; 0.36 µM with HuH7 (Homo sapiens, Huh-7, 48 h); 10.8 µM in the test with HepG2. Also, the EC50 in the test with HeLa is 26.3 µM.
Regarding `COc1ccc(NC(=O)c2csc(C3CCN(C(=O)NC4C=C(c5ccccc5)N=N4)CC3)n2)cn1` (stereo not shown) [XIII], the EC50 with DAN-G was 8.9 µM; in the test on CX-2 it was more than 20 µM; in the test with SK-Br-3, 12.3 µM; with HuH7 (Homo sapiens, Huh-7, 48 h), 5.3 µM; in the test on HeLa, 10.1 µM.
In the same order, the values of `O=C(NC1CCc2ccccc21)c1csc(C2CCN(C(=O)CC3C=Nc4ccccc43)CC2)n1` (stereo not shown) [XLVII] are 9.7 µM, 19.9 µM, 11.2 µM, 9.15 µM and 13.6 µM.
Turning to `O=C(NCc1ccccc1[N+](=O)[O-])c1csc(C2CCN(C(=O)Cc3c[nH]c4ccccc34)CC2)n1` [XL], the EC50 was determined as 9.01 µM in the test with DAN-G; 14.9 µM in the test on CX-2; 23.8 µM in the test with SK-Br-3; 2.98 µM with HuH7 (Huh-7); 22.9 µM in the test with HeLa.
Take `Cc1ccc(NC(=O)c2csc(C3CCN(C(=O)CC4C=Nc5ccccc54)CC3)n2)cc1F` (stereo not shown) [XV]: the EC50 in the test on DAN-G stood at 3.81 µM; with CX-2, 10.9 µM; with SK-Br-3 it was 10.8 µM; in the test on HuH7 (Homo sapiens, Huh-7, 48 h), 1.64 µM; in the test on HeLa, 17.2 µM.
As to `O=C(Nc1ccc(F)c(F)c1)c1csc(C2CCN(C(=O)CC3C=Nc4ccccc43)CC2)n1` (stereo not shown) [XXIV], the EC50 turned out to be 2.55 µM with DAN-G; 10.3 µM in the test with CX-2; 16.6 µM in the test on SK-Br-3; 0.25 µM in the test with HuH7 (Homo sapiens, Huh-7, 48 h); 8.91 µM in the test on HeLa.
On to `Cc1ccc(S(=O)(=O)N2CCC(c3nc(C(=O)Nc4nnc(C(F)(F)F)s4)cs3)CC2)cc1Cl` [XXVI], for which the EC50 with DAN-G is 13.5 µM; in the test with CX-2, 20.2 µM; in the test with SK-Br-3, 19.3 µM; in the test on HuH7 (Homo sapiens, Huh-7, 48 h), 1.15 µM; in the test with HeLa, 11.1 µM.
For `O=C(Nc1cc(-c2cccs2)n[nH]1)c1csc(C2CCN(C(=O)N3CCN(c4ccccn4)CC3)CC2)n1` [XXXIII], the EC50 was 13.8 µM in the test with DAN-G; more than 20 µM in the test on CX-2; more than 20 µM in the test with SK-Br-3; 3.23 µM in the test on HuH7 (Homo sapiens, Huh-7, 48 h); 11.6 µM with HeLa.
Consider `C=CCSc1ncccc1C(=O)N1CCC(c2nc(C(=O)Nc3cc(-c4ccccc4)nn3C)cs2)CC1` [XXXI], for which the EC50 with DAN-G was 3.58 µM; in the test on CX-2, 10.4 µM; in the test on SK-Br-3, 10.2 µM; in the test with HuH7 (Homo sapiens, Huh-7, 48 h) it was 0.5 µM; in the test with HeLa, 20.5 µM.
In the same order, the values of `COc1ccc(C(=O)N2CCC(c3nc(C(=O)NC4C=C(c5ccccc5)N=N4)cs3)CC2)c(OC)c1OC` (stereo not shown) [XX] are 7.8 µM, more than 20 µM, 19.7 µM, 5.31 µM and 10.3 µM.
For the molecule `O=C(Nc1nccs1)c1csc(C2CCN(C(=O)Cc3c[nH]c4ccccc34)CC2)n1` [X], the EC50 in the test on DAN-G is 2.53 µM; in the test with CX-2, more than 20 µM; in the test on SK-Br-3, 18.9 µM; in the test with HuH7 (Huh-7) it was 1.54 µM; in the test with HeLa, 18 µM.
